Test system: Staphylococcus aureus (ATCC 6538)
Assay: EPA Test antimicrobial efficacy (log kill) of films/coupons
Assay type: cell-based

Structure (SMILES): CCOP(OCC)OCC.[Cu][I] [CuI(TEP), iodo(triethyl phosphite)copper(I)]
- antimicrobial efficacy: essentially full kill
